The text below walks through data of patent US20110082114A1, “Methods of Treating Aneurysmal Dilatation, Blood Vessel Wall Weakness and Specifically Abdominal Aortic and Thoracic Aneurysm Using Matrix Metalloprotease-2 Inhibitors” (SYMPHONY EVOLUTION, INC., priority 2009, published 2011).

Assay [1] relates to C57/B16 mice, elastase-perfused abdominal aorta. As to the kind of experiment: Elastase-perfusion mouse model of AAA, aortic histology. The format is in vivo. To be noted: 50, 125, 250 mg/kg/day. As for the experimental part: The aortas from several mice from each experimental group were perfusion fixed with 10% neutral-buffered formalin, removed, and placed in additional formalin for a minimum of 24 hours prior to processing for paraffin embedding. Following paraffin embedding, aortic specimens were cut into 5 μm sections and mounted on glass slides. Each specimen was stained with hematoxylin and eosin to evaluate inflammatory cell infiltration and Accustain® Elastic Stain kit to assess the degree of elastin degradation. Photomicrographs of serial sections were obtained using an Olympus BX60 light microscope equipped with CV12 video capture camera.
Representative aortas from each group were fixed in formalin following aortic harvest and processed into paraffin blocks. During harvest only the maximally dilated segment of the aorta was taken, and serial sections of the block were made to assure that the most dilated segment of aorta was imaged. These maximally dilated segments were stained with Hematoxylin and Eosin stains as well as an elastin highlighting stain (Verhoff-Von Giesen [VVG]).

For assay [2] the test system is unchanged. Description: Elastase-perfusion mouse model of AAA, aortic diameter. The class given is in vivo. To be noted: for mean % ΔAD (increase in aortic diameter at 2 weeks): daily gavage in Cremophor, Mean±SE. The text has this:
All mice used in the experiment were commercially obtained C57/B16 inbred strain mice. Throughout the experimental course, mice were allowed free access to food and water. Animals were housed in a controlled animal facility, and all mouse care and treatment occurred under approved protocols.
A total of 89 C57/B16 mice were subjected to transient perfusion of the abdominal aorta according to a protocol known in the art. Briefly, after sedation and preparation, the aorta was approached through a midline laparotomy. The infrarenal aorta was dissected and the diameter was measured under physiologic blood pressure. A segment of infrarenal aorta was isolated and a 5 minute perfusion of this segment was performed through an arteriotomy at 100 mmHg with a solution containing type I porcine pancreatic elastase (PPE 0.16 U/mL). All of the experiments were performed with a single PPE preparation derived from the same commercial source and lot.
Following aortic perfusion the arteriotomy was repaired, the laparotomy was closed and the animal was allowed to completely recover before returning to its standard housing.
Following aortic perfusion, animals were placed into one of 5 treatment groups. […] Three different doses of the agent were used, 50 mg/kg/day (n=17), 125 mg/kg/day (n=17), and 250 mg/kg/day (n=18). There were two mice in each group which died following aortic perfusion, and all others were available for analysis. Control animals (n=18) were similarly treated with daily gavage of the Cremophor diluent only. Of these mice, 16 survived the two weeks following aortic perfusion and underwent final aortic measurements and harvest. […] In this group, 4 mice died prior to the two week harvest, and all others were used in the analysis of aneurysm growth.
Two weeks following elastase perfusion, the mice were again anesthetized; the laparotomy incision was reopened and the final aortic diameter was measured in vivo prior to sacrifice. The animals were humanely sacrificed, and circulating blood and the entire perfused segment of aorta was harvested for RNA extraction, protein extraction or histology.

A further assay has as its target T1, mADAM-10 or hADAM-10 (UniProt O14672).
T1 sequence (O14672 1-748): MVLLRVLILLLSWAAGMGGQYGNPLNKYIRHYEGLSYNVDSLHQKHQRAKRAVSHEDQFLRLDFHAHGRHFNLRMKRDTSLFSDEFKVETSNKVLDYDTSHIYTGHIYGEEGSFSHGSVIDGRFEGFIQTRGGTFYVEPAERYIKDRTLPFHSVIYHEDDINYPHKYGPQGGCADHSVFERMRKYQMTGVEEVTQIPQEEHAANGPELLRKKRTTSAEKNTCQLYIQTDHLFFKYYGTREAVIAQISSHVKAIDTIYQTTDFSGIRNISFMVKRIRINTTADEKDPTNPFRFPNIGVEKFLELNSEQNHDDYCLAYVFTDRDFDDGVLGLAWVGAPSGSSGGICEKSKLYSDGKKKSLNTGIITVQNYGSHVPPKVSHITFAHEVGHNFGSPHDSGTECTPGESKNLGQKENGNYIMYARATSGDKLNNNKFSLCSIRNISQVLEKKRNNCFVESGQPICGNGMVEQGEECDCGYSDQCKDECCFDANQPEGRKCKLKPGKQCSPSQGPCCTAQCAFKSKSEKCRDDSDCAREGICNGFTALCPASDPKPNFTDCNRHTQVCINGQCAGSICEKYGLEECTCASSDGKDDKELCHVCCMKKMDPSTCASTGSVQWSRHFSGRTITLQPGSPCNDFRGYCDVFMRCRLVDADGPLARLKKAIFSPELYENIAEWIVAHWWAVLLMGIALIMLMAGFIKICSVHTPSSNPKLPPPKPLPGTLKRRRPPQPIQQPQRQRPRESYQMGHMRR
As to the kind of experiment: ADAM-10 enzyme assay (fluorogenic peptide cleavage).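 Note: fluorescence from cleavage of a quenched 10-residue DABCYL/EDANS peptide by 5 nM enzyme in HEPES pH 8.0 buffer, 16 hr at room temperature, compounds serially diluted 100 µM to 0.5 nM.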 The format is biochemical.

The IC50 is the midpoint of a concentration-inhibition curve. Low values mean greater potency in that assay, high ones weaker potency in that assay.

Experimental for mADAM-10 or hADAM-10: mADAM-10 or hADAM-10 activity was measured as the ability to cleave a 10-residue peptide (DABCYL-Leu-Leu-Ala-Gln-Lys-*-Leu-Arg-Ser-Ser-Arg-EDANS). […] Enzyme was diluted to a final active concentration of 5 nM in Buffer A (50 mM HEPES 8.0, 100 mM NaCl, 1 mM CaCl2 and 0.01% NP-40). Serial dilutions for compounds were performed ranging from 100 μM to 0.5 nM using a Beckman Biomek 2000 in polypropylene plates (Greiner). […] This reaction was incubated for 16 hr at RT and fluorescence was read using identical conditions.

Consider `COCCOC(=O)N1CCN(S(=O)(=O)c2cc(F)c(Oc3ccc(Cl)cc3)c(F)c2)[C@@H](C(=O)NO)C1` [Entry 15], for which, in assay [1], the “degree of elastin damage and inflammatory cell inflammation versus dose” value is recorded as “inversely correlated with the dose of the agent administered”. The “mean % ΔAD (increase in aortic diameter at 2 weeks)” value is listed as 129.3±5.1% in assay [2] (125 mg/kg/day), 119.2±14.1% in assay [2] (250 mg/kg/day) and 140.4±3.2% in assay [2] (lowest dose (50 mg/kg/day)). The “animals which did not develop aneurysms” value in assay [2] (250 mg/kg/day, daily gavage) worked out at 12%. In addition, the “aortic diameters at harvest compared with control animals” value in assay [2] (all doses (50, 125, 250 mg/kg/day)) was “significantly smaller than control animals”. For the same molecule, the “animals that developed maximal diameters greater than 100%” value in assay [2] (low (50 mg/kg/day) and intermediate (125 mg/kg/day) dose groups) is “All animals”. In turn, `CCOC(=O)N1CCN(CCS(=O)(=O)N2CCN(S(=O)(=O)c3cc(F)c(Oc4ccc(Cl)cc4)c(F)c3)[C@@H](C(=O)NO)C2)CC1` [Entry 56] returned an IC50 on mADAM-10 or hADAM-10 below 50 nM. Regarding `O=C(NO)[C@H]1CN(S(=O)(=O)CCN2CCOCC2)CCN1S(=O)(=O)c1cc(F)c(Oc2ccc(Cl)cc2)c(F)c1` [Entry 57], the concentration for half-maximal inhibition (IC50) against mADAM-10 or hADAM-10 fell in the range of 50 to 1000 nM. Take `O=C(NO)[C@H]1CN(C(=O)N2CCOCC2)CCN1S(=O)(=O)c1ccc(-c2cccc(F)c2)nc1` [Entry 58]: the IC50 against mADAM-10 or hADAM-10 is below 50 nM. The molecule `O=C(NO)[C@H]1CN(C(=O)c2cccnc2)CCN1S(=O)(=O)c1cc(F)c(Oc2ccc(Cl)cc2)c(F)c1` [Entry 59] displayed an IC50 on mADAM-10 or hADAM-10 below 50 nM.

Take `CN(C)c1cccc2c(S(=O)(=O)N3CCN(S(=O)(=O)c4cc(F)c(Oc5ccc(Cl)cc5)c(F)c4)[C@@H](C(=O)NO)C3)cccc12` [Entry 60]: the IC50 against mADAM-10 or hADAM-10 was 50 to 1000 nM. Turning to `O=C(NO)[C@H]1CN(S(=O)(=O)Cc2cc(Cl)cc(Cl)c2)CCN1S(=O)(=O)c1cc(F)c(Oc2ccc(Cl)cc2)c(F)c1` [Entry 61], at mADAM-10 or hADAM-10, the IC50 was 50 to 1000 nM.

On to `C=CCN1CCN(S(=O)(=O)c2cc(F)c(Oc3ccc(Cl)cc3)c(F)c2)[C@@H](C(=O)NO)C1` [Entry 62], for which, at mADAM-10 or hADAM-10, the IC50 lay within 50 to 1000 nM.

Molecule `O=C(O)CN1CCN(S(=O)(=O)c2cc(F)c(Oc3ccc(Cl)cc3)c(F)c2)[C@@H](C(=O)NO)C1` [Entry 63] had a 50% inhibitory concentration (IC50) against mADAM-10 or hADAM-10 of 50 to 1000 nM.

For the molecule `COCCOC(=O)N1CCN(S(=O)(=O)c2ccc(Oc3ccc4c(c3)CCCC4)nc2)[C@@H](C(=O)NO)C1` [Entry 64], the IC50 on mADAM-10 or hADAM-10 is below 50 nM. On to `COCCOC(=O)N1CCN(S(=O)(=O)c2ccc(Oc3ccc(F)cc3)nc2)[C@@H](C(=O)NO)C1` [Entry 65], for which the IC50 against mADAM-10 or hADAM-10 fell in the range of 50 to 1000 nM. Turning to `COCCOC(=O)N1CCN(S(=O)(=O)c2ccc(-c3cccc(F)c3)nc2)[C@@H](C(=O)NO)C1` [Entry 66], the IC50 on mADAM-10 or hADAM-10 was below 50 nM.

Consider `C[C@H]1c2cccc(O)c2C(=O)C2=C(O)[C@]3(O)C(=O)C(C(N)=O)=C(O)[C@@H](N(C)C)[C@@H]3[C@@H](O)[C@@H]21` [doxycycline, reference compound], for which the “animals not reaching the threshold designated for aneurysms (% ΔAD greater than 100%)” value in assay [2] (doxycycline in drinking water, 100 mg/kg/day) came out at 13%. Besides, in assay [2] (doxycycline in drinking water, 100 mg/kg/day, n=15, Mean±SE), the “mean % ΔAD (percentage increase in aortic diameter at 2 weeks compared to baseline)” value turned out to be 112.2±2.0%.
